Legend:
[1] = target: T1, Tyrosine-protein kinase transforming protein Abl (Abelson murine leukemia virus, UniProt P00521)
T1 sequence (P00521 whole entry): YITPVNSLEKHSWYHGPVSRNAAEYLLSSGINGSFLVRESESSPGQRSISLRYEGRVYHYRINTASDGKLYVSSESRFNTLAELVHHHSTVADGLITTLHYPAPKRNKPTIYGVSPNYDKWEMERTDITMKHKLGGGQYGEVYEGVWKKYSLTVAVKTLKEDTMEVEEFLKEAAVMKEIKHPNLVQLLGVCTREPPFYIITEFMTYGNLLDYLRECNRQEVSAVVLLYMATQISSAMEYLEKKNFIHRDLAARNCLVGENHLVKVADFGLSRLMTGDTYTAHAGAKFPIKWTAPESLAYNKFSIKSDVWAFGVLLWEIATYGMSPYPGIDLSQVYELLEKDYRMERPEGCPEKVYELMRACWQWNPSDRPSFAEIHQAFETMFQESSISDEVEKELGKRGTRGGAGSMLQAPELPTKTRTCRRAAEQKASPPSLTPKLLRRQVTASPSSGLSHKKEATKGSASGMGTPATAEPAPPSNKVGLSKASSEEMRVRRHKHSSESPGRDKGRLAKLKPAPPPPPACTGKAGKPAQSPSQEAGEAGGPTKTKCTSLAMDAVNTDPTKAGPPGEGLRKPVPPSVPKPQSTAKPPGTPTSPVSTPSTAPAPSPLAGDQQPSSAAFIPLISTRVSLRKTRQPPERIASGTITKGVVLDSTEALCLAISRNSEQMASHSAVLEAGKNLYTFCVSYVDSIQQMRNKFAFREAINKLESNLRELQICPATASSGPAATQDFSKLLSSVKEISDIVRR
Description: Inhibition of Abelson murine leukemia virus p60 v-abl

[2] = target: Epidermal growth factor receptor (Homo sapiens, UniProt P00533)
Chain of Epidermal growth factor receptor (P00533 whole entry): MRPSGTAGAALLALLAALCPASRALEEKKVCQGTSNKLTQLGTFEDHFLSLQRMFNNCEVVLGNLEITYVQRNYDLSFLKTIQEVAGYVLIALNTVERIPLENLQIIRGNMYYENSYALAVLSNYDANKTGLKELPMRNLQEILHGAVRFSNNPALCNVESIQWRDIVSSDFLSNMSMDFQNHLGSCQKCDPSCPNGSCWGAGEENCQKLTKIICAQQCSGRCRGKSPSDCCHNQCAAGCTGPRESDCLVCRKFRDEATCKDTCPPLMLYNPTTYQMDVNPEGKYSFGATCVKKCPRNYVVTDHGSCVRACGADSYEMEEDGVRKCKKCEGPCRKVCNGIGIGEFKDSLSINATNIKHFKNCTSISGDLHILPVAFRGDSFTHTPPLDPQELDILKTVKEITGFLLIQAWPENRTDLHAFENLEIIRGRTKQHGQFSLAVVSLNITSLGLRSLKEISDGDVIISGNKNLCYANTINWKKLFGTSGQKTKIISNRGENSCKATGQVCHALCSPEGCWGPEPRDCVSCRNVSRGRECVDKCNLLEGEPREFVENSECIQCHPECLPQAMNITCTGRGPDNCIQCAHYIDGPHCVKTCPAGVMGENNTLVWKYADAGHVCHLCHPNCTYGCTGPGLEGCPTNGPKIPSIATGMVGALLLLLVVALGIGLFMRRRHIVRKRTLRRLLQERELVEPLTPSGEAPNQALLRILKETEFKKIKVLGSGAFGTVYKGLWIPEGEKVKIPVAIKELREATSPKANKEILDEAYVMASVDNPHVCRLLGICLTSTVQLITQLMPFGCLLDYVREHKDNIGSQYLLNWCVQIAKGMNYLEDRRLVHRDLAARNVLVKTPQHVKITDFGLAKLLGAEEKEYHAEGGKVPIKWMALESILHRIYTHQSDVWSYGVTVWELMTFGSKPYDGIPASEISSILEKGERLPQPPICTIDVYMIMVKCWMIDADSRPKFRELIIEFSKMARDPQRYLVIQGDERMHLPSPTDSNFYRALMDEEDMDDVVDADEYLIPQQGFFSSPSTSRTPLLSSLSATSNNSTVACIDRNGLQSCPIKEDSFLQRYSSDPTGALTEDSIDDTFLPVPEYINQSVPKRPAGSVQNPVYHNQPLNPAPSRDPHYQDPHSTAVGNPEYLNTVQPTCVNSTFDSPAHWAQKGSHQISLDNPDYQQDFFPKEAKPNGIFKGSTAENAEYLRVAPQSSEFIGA

SMILES | IC50 [1] | IC50 [2] | also measured
Nc1ncnc2c1ncn2[C@@H]1O[C@H](COP(=O)(O)OP(=O)(O)OP(=O)(O)OP(=O)(O)Oc2ccccc2)[C@@H](O)[C@H]1O | 400 µM | – | –
CS(=O)(=O)c1ccc(C(=O)OC[C@H]2O[C@@H](n3cnc4c(N)ncnc43)[C@H](O)[C@@H]2O)cc1 | 60 µM | – | –
C[C@H](NC(=O)[C@H](C)NC(=O)c1ccc(S(=O)(=O)Oc2ccc(/C=C/[N+](=O)[O-])cc2)cc1)C(=O)O | 40 µM | – | –
Cc1ccc(NP(=O)(O)OP(=O)(O)OP(=O)(O)OC[C@H]2O[C@@H](n3cnc4c(N)ncnc43)[C@H](O)[C@@H]2O)cc1 | 200 µM | – | –
Nc1ncnc2c1ncn2[C@@H]1O[C@H](COP(=O)(O)OP(=O)(O)OP(=O)(O)Oc2ccccc2)[C@@H](O)[C@H]1O | 10 µM | – | –
CC(=O)NC(Cc1ccc(NP(=O)(O)OP(=O)(O)OP(=O)(O)OP(=O)(O)OC[C@H]2O[C@@H](n3cnc4c(N)ncnc43)[C@H](O)[C@@H]2O)cc1)C(N)=O (some centres not stated) | 100 µM | – | –
C[C@H](NC(=O)c1ccc(S(=O)(=O)Oc2ccc(/C=C/[N+](=O)[O-])cc2)cc1)C(=O)N[C@@H](C)C(=O)OC(C)(C)C | 100 µM | – | –
COc1ccc(NP(=O)(O)OP(=O)(O)OP(=O)(O)OC[C@H]2O[C@@H](n3cnc4c(N)ncnc43)[C@H](O)[C@@H]2O)cc1 | 90 µM | – | –
Nc1ncnc2c1ncn2[C@@H]1O[C@H](COC(=O)c2ccc(S(=O)(=O)Oc3ccc(/C=C/[N+](=O)[O-])cc3)cc2)[C@@H](O)[C@H]1O | > 100 µM | – | –
CC(=O)NC(Cc1ccc(NP(=O)(O)OP(=O)(O)OP(=O)(O)OC[C@H]2O[C@@H](n3cnc4c(N)ncnc43)[C@H](O)[C@@H]2O)cc1)C(N)=O (some centres not stated) | 40 µM | – | –
Nc1ncnc2c1ncn2[C@@H]1O[C@H](COC(=O)c2ccc(S(=O)(=O)Oc3ccccc3)cc2)[C@@H](O)[C@H]1O | 200 µM | – | –
Nc1ncnc2c1ncn2[C@@H]1O[C@H](COC(=O)c2ccc(S(=O)(=O)Nc3ccccc3)cc2)[C@@H](O)[C@H]1O | 20 µM | – | –
CC(=O)NCCNP(=O)(O)OP(=O)(O)OP(=O)(O)OC[C@H]1O[C@@H](n2cnc3c(N)ncnc32)[C@H](O)[C@@H]1O | 30 µM | – | –
COc1cc(/C=C/[N+](=O)[O-])ccc1OS(=O)(=O)c1ccc(C(=O)OC[C@H]2O[C@@H](n3cnc4c(N)ncnc43)[C@H](O)[C@@H]2O)cc1 | 100 µM | – | –
Cc1ccc(NP(=O)(O)OP(=O)(O)OP(=O)(O)OP(=O)(O)OC[C@H]2O[C@@H](n3cnc4c(N)ncnc43)[C@H](O)[C@@H]2O)cc1 | 20 µM | – | –
CCOc1cc(/C=C(\C#N)C(N)=O)cc(CSc2ccc(C)cc2)c1O | – | 20 µM | –

SMILES | IC50 [1] | IC50 [2] | also measured
COC(=O)c1oc2cc(O)cc(O)c2c(=O)c1-c1ccc(O)cc1 | – | 6.09 µM | –
CC(C)(C)c1cc(/C=C(\C#N)C(N)=O)cc(C(C)(C)C)c1O | – | 50 µM | –
NC(=O)c1oc2cc(O)cc(O)c2c(=O)c1-c1ccc(O)cc1 | – | 31.9 µM | –
N#C/C(=C\c1cc(CSc2ccccc2)c(O)c(OCc2ccccc2)c1)C(N)=O | – | 0.8 µM | –
Cc1oc2cc(O)cc(O)c2c(=O)c1-c1ccc(O)cc1 | – | 7.04 µM | –
O=C(O)/C=C/c1cc(O)ccc1O | – | 44.4 µM | –
O=CN/C=C/c1cccc(O)c1 | – | > 61.3 µM | –
CCOC(=O)CSCc1oc2cc(O)cc(O)c2c(=O)c1-c1ccc(O)cc1 | – | 9.94 µM | –
N#CC(C#N)=C1C(=O)Nc2cc(O)c(O)cc21 | – | 3 µM | –
CCOc1cc(/C=C(\C#N)C(N)=O)cc(CSc2ccc(O)cc2)c1O | – | 3 µM | –
CCOC(=O)c1oc2cc(O)cc(O)c2c(=O)c1-c1ccc(O)cc1 | – | 5.84 µM | –
N#C/C(=C/c1cc(Cc2ccccc2)c(O)c(Cc2ccccc2)c1)C(N)=O | – | 0.6 µM | –
CSCc1oc2cc(O)cc(O)c2c(=O)c1-c1ccc(O)cc1 | – | 15.1 µM | –
O=CN/C=C/c1ccccc1O | – | > 613 µM | –
N#CC(C#N)=C1C(=O)Nc2ccc(O)cc21 | – | 10 µM | –
CC(C)C[C@H](NC(=O)[C@H](CCCNC(=N)N)NC(=O)[C@@H](N)CCCNC(=N)N)C(=O)N[C@@H](CCC(=O)O)C(=O)N[C@@H](CCC(=O)O)C(=O)N[C@@H](CCC(=O)O)C(=O)N[C@@H](CCC(=O)O)C(=O)N[C@@H](CCC(=O)O)C(=O)N[C@@H](C)C(=O)N[C@@H](Cc1c(F)c(F)c(O)c(F)c1F)C(=O)NCC(=O)O (stereo in doubt; 187D) | – | – | Ki [2]: 20 µM

From ChEMBL document CHEMBL1150213, “Protein-tyrosine kinase inhibition: mechanism-based discovery of antitumor agents” (J Nat Prod, 1992)
